Test results: US20250213555A1, “SUBSTITUTED TETRAHYDROFURAN ANALOGS AS MODULATORS OF SODIUM CHANNELS” (VERTEX PHARMACEUTICALS INCORPORATED, priority 2021, published 2025)

The compounds below were run against human Nav 1.8 (Homo sapiens, UniProt Q9Y5Y9) (assay: E-VIPR assay detecting and measuring Nav inhibition properties). Conditions: HEK cells expressing a truncated form of human Nav 1.8; compound numbers without "*" (not marked as run in the presence of human serum); read-out: measured IC50 value in the E-VIPR Assay.
Assay type: cell-based
Outline: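 Nav inhibition was read by E-VIPR: cells were electrically stimulated while coumarin/oxonol FRET emissions were recorded. Cells were HEK expressing a truncated human Nav 1.8 and co-transduced with KIR2.1, and were assayed in 25% final human serum.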

Sequence of human Nav 1.8 (Q9Y5Y9 126-399 limits assumed): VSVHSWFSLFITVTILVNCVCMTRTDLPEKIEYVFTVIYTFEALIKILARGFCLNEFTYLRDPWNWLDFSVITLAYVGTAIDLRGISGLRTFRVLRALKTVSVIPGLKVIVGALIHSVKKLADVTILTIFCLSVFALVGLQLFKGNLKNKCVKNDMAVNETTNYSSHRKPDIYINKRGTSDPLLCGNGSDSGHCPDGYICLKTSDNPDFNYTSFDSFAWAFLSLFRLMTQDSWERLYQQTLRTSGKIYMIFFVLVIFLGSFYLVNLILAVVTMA
Sequence of human Nav 1.8 (Q9Y5Y9 660-890 limits assumed): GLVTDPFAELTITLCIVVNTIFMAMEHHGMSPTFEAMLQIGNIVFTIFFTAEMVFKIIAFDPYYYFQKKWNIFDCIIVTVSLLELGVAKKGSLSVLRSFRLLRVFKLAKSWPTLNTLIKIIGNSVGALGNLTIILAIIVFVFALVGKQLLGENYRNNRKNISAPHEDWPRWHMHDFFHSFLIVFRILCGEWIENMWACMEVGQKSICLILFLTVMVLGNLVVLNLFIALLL
Sequence of human Nav 1.8 (Q9Y5Y9 1148-1722 limits assumed): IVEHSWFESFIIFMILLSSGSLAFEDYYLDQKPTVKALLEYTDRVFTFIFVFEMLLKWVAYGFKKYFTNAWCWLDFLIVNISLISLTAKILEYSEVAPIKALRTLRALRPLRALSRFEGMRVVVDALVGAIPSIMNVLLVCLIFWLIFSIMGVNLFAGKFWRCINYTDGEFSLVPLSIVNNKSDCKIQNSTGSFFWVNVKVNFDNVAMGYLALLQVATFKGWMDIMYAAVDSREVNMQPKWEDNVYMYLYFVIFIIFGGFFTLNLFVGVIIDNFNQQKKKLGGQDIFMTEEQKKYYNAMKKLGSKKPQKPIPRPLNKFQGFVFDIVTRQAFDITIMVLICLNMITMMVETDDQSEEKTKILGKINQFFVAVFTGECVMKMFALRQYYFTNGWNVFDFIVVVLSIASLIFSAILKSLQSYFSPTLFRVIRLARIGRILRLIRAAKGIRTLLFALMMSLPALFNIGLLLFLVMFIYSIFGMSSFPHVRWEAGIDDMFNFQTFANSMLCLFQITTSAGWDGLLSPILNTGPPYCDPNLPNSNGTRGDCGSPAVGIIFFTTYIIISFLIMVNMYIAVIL

| SMILES | IC50 [nM] |
| --- | --- |
| COc1c([C@H]2[C@H](C(=O)Nc3ccnc(C(=O)N4C[C@@H](F)[C@H](N(C)C)C4)c3)O[C@@](C)(C(F)(F)F)[C@H]2C)ccc(F)c1F [Compound 299, (2R,3S,4S,5R)-3-(3,4-difluoro-2-methoxyphenyl)-N-(2-((3R,4R)-3-(dimethylamino)-4-fluoropyrrolidine-1-carbonyl)pyridin-4-yl)-4,5-dimethyl-5-(trifluoromethyl)tetrahydrofuran-2-carboxamide] | 10 to 100 |
| CCOc1ccc([C@@H]2[C@@H](C(=O)Nc3ccnc(C(N)=O)c3)O[C@](C)(C(F)(F)F)[C@@H]2C)c2c1OC(F)(F)O2 (single isomer, unassigned) [Compound 209] | ≥ 1000 |
| C[C@H]1[C@@H](c2ccc(F)c(F)c2OCc2cn[nH]c2)[C@H](C(=O)Nc2ccnc(C(N)=O)c2)O[C@@]1(C)C(F)(F)F [Compound 168, 4-((2R,3S,4S,5R)-3-(2-((1H-pyrazol-4-yl)methoxy)-3,4-difluorophenyl)-4,5-dimethyl-5-(trifluoromethyl)tetrahydrofuran-2-carboxamido)picolinamide] | < 10 |
| COC[C@H]1CN(C(=O)c2cc(NC(=O)[C@@H]3O[C@@](C)(C(F)(F)F)[C@@H](C)[C@H]3c3ccc(F)c(F)c3OC)ccn2)CCN1C [Compound 287, (2R,3S,4S,5R)-3-(3,4-difluoro-2-methoxyphenyl)-N-(2-((R)-3-(methoxymethyl)-4-methylpiperazine-1-carbonyl)pyridin-4-yl)-4,5-dimethyl-5-(trifluoromethyl)tetrahydrofuran-2-carboxamide] | < 10 |
| COc1c([C@H]2[C@H](C(=O)Nc3ccnc(C(=O)N4CCN(C)[C@H]5C[C@H]54)c3)O[C@@](C)(C(F)(F)F)[C@H]2C)ccc(F)c1F (single isomer, unassigned) [Compound 294, rel-(2R*,3S*,4S*,5R*)-3-(3,4-difluoro-2-methoxyphenyl)-4,5-dimethyl-N-(2-((1R,6S)-5-methyl-2,5-diazabicyclo[4.1.0]heptane-2-carbonyl)pyridin-4-yl)-5-(trifluoromethyl)tetrahydrofuran-2-carboxamide] | < 10 |
| COc1c([C@H]2[C@H](C(=O)Nc3ccnc(C(=O)NC4CNC4)c3)O[C@@](C)(C(F)(F)F)[C@H]2C)ccc(F)c1F [Compound 236, N-(azetidin-3-yl)-4-((2R,3S,4S,5R)-3-(3,4-difluoro-2-methoxyphenyl)-4,5-dimethyl-5-(trifluoromethyl)tetrahydrofuran-2-carboxamido)picolinamide] | 10 to 100 |
| C[C@H]1[C@@H](c2ccc(F)c(F)c2OCCN[C@@H]2CCOC2)[C@H](C(=O)Nc2ccnc(C(N)=O)c2)O[C@@]1(C)C(F)(F)F [Compound 116, 4-((2R,3S,4S,5R)-3-(3,4-difluoro-2-(2-(((R)-tetrahydrofuran-3-yl)amino)ethoxy)phenyl)-4,5-dimethyl-5-(trifluoromethyl)tetrahydrofuran-2-carboxamido)picolinamide] | 10 to 100 |
| COc1c([C@H]2[C@H](C(=O)Nc3nccc(C(=O)N4CCNCC4)n3)O[C@@](C)(C(F)(F)F)[C@H]2C)ccc(F)c1F [Compound 20, (2R,3S,4S,5R)-3-(3,4-difluoro-2-methoxyphenyl)-4,5-dimethyl-N-(4-(piperazine-1-carbonyl)pyrimidin-2-yl)-5-(trifluoromethyl)tetrahydrofuran-2-carboxamide] | 10 to 100 |
| C[C@H]1[C@@H](c2ccc(F)c(F)c2OCCN2C[C@@H]3C[C@H]2CO3)[C@H](C(=O)Nc2ccnc(C(N)=O)c2)O[C@@]1(C)C(F)(F)F (relative stereo) [Compound 46, rel-4-((2R*,3S*,4S*,5R*)-3-(2-(2-((1S,4S)-2-oxa-5-azabicyclo[2.2.1]heptan-5-yl)ethoxy)-3,4-difluorophenyl)-4,5-dimethyl-5-(trifluoromethyl)tetrahydrofuran-2-carboxamido)picolinamide] | < 10 |
